Data as given in patent US5139740A, “Polyprenyl compound composition for soft capsules” (Eisai Co., Ltd., priority 1989, dated 1992).

Legend:
[1] = cited from earlier work; for adverse reactions: clinical / reported in the literature
[2] = beagle; 200 mg indometacin farnesyl orally, formulated with the named additive
Description: In this test, the crossover method was employed by using six female beagles with the administration of 200 mg of indometacin farnesyl orally to each of them 30 min after breakfast, and sampling their blood at intervals to determine the concentration of indometacin farnesyl in their blood according to HPLC.
Six female beagles were used to determine indometacin farnesyl in the blood by the crossover method.
In the test, each sample was orally administered 30 min after breakfast and 2.5 ml of blood was sampled at intervals to determine the concentration of indometacin farnesyl under the HPLC conditions which will be described below.
The maximum blood concentration, Cmax (μg/ml), and the area under the blood concentration-time curve, AUC (μg hr/ml), 6 h after the administration of each of samples A to F were determined and expressed in terms of relative value with respect to those of a standard formulation.
stationary phase: Nucleosil®10 C18, 4.6 mm diameter×150mm
mobile phase: methanol/water (300/16)

[3] = Rat lymph absorption test (lymph cannulation method, HPLC); type: in vivo; conditions: SD rats, 12-week old; 5 mg/kg indometacin farnesyl orally, formulated with the named additive
Description: In this test, 5 mg/kg of indometacin farnesyl was orally administered to SD rats (12-week old) and indometacin farnesyl in the lymphatic vessels was determined according to HPLC by the lymph cannulation method.

SMILES | adverse reactions [1] | antiinflammatory effect ([1]; prior art statement) | absorption of indometacin farnesyl (in words) [2] | absorption of indometacin farnesyl into lymph (in words) [3]
COc1ccc2c(c1)c(CC(=O)O)c(C)n2C(=O)c1ccc(Cl)cc1 [indometacin] | various adverse reactions such as gastrointestinal or renal disturbances | – | – | –
COc1ccc2c(c1)c(CC(=O)OCC=C(C)CC/C=C(\C)CCC=C(C)C)c(C)n2C(=O)c1ccc(Cl)cc1 [indomethacin farnesyl, (6E)-3,7,11-trimethyl-2,6,10-dodecatrienyl 1-(p-chlorobenzoyl)-5-methoxy-2-methyl-lH-indole-3-acetate] | only slight adverse reactions | long-lasting antiinflammatory | – | –
CCCCC/C=C\C/C=C\CCCCCCCC(=O)O [linolic acid] | – | – | particularly excellent absorption | particularly excellent absorption
CCCCCCCC/C=C\CCCCCCCC(=O)O [oleic acid] | – | – | particularly excellent absorption | –
